Measurements as given in patent US8258160B2, “SCD1 inhibitors triazole and tetrazole compounds” (Novartis AG, priority 2006, dated 2012).

Row | SMILES | melting point
1 | Cc1nc(-c2noc(Cc3ccccc3)n2)sc1C(=O)NCc1ccccc1 [Example 34, N-benzyl-2-(5-benzyl-1,2,4-oxadiazol-3-yl)-4-methylthiazole-5-carboxamide] | 124 to 125 °C
2 | Cc1nc(-c2nn[nH]n2)sc1C(=O)NCc1cccnc1 [Example 6, 4-methyl-N-(pyridin-3-ylmethyl)-2-(2H-tetrazol-5-yl)thiazole-5-carboxamide] | > 200 °C (dec.)
3 | Cc1nc(-n2[nH]c(C)c(Cc3ccc(Cl)cc3)c2=O)sc1C(=O)NCc1cccnc1 [Example 33, 2-(4-(4-chlorobenzyl)-3-methyl-5-oxo-2,5-dihydro-1H-pyrazol-1-yl)-4-methyl-N-(pyridin-3-ylmethyl)thiazole-5-carboxamide] | 215 to 217 °C
4 | Cc1cc(-c2ncn(Cc3ccc(F)cc3)n2)sc1C(=O)NCc1ccccc1 [Example 23, N-benzyl-5-(1-(4-fluorobenzyl)-1H-1,2,4-triazol-3-yl)-3-methylthiophene-2-carboxamide] | 128 to 130 °C
5 | Cc1nc(-n2cc(CCCc3ccccc3)nn2)sc1C(=O)NCc1cccnc1 [Example 14, 4-methyl-2-(4-(3-phenylpropyl)-1H-1,2,3-triazol-1-yl)-N-(pyridin-3-ylmethyl)thiazole-5-carboxamide] | 108 to 110 °C

Results, then the molecule that gave them:

Row | melting point | SMILES
6 | 81 to 84 °C | Cc1nc(-n2cc(CCCc3ccccc3)nn2)sc1C(=O)NCc1ccc(F)c(F)c1 [Example 14.1, N-(3,4-difluorobenzyl)-4-methyl-2-(4-(3-phenylpropyl)-1H-1,2,3-triazol-1-yl)thiazole-5-carboxamide]
7 | 154 to 155 °C | Cc1cc(-c2ncn(Cc3ccc(F)cc3)n2)sc1C(=O)NCc1cccnc1 [Example 23.1, 5-(1-(4-fluorobenzyl)-1H-1,2,4-triazol-3-yl)-3-methyl-N-(pyridin-3-ylmethyl)thiophene-2-carboxamide]
8 | 203 to 205 °C | Cc1nc(-n2cc(-c3ccc(F)cc3)nn2)sc1C(=O)NCc1ccccc1 [Example 10.13, N-benzyl-2-(4-(4-fluorophenyl)-1H-1,2,3-triazol-1-yl)-4-methylthiazole-5-carboxamide]
9 | 212 to 213 °C | Cc1nc(-c2cn(Cc3ccc(F)cc3)nn2)sc1C(=O)NCc1cccnc1 [Example 4.1, 2-(1-(4-fluorobenzyl)-1H-1,2,3-triazol-4-yl)-4-methyl-N-(pyridin-3-ylmethyl)thiazole-5-carboxamide]
10 | 94 to 97 °C | Cc1nc(-n2cc(CCCc3ccccc3)nn2)sc1C(=O)NCc1ccccc1 [Example 10.3, N-benzyl-4-methyl-2-(4-(3-phenylpropyl)-1H-1,2,3-triazol-1-yl)thiazole-5-carboxamide]
11 | 114 to 116 °C | Cc1nc(-n2cc(CCc3ccccc3)nn2)sc1C(=O)NCc1cccnc1 [Example 14.2, 4-methyl-2-(4-phenethyl-1H-1,2,3-triazol-1-yl)-N-(pyridin-3-ylmethyl)thiazole-5-carboxamide]
12 | 168 to 171 °C | COc1ccc(-c2cn(-c3nc(C)c(C(=O)NCc4ccccc4)s3)nn2)cc1 [Example 10.5, N-benzyl-2-(4-(4-methoxyphenyl)-1H-1,2,3-triazol-1-yl)-4-methylthiazole-5-carboxamide]
13 | 143 to 146 °C | Cc1nc(-n2cc(C(O)c3ccccc3)nn2)sc1C(=O)NCc1ccccc1 (stereo not drawn) [Example 10.7, N-benzyl-2-(4-(hydroxy(phenyl)methyl)-1H-1,2,3-triazol-1-yl)-4-methylthiazole-5-carboxamide]
14 | 140 to 141 °C | Cc1nc(-c2cn(CC3CC3)nn2)sc1C(=O)NCc1cccnc1 [Example 4.5, 2-(1-(cyclopropylmethyl)-1H-1,2,3-triazol-4-yl)-4-methyl-N-(pyridin-3-ylmethyl)thiazole-5-carboxamide]
15 | 117 to 119 °C | Cc1nc(-n2cc(-c3cccnc3)nn2)sc1C(=O)NCc1ccccc1 [Example 10.9, N-benzyl-4-methyl-2-(4-(pyridin-3-yl)-1H-1,2,3-triazol-1-yl)thiazole-5-carboxamide]
